Measured values from PMC10339703 (Clinical and Translational Science, 2023).

Columns and labels:
[1] = Metabolite profile in liver microsomes; format: in vitro ADME
monkeys = experiment: Multiple-dose toxicity study up to 28 days in monkeys; format: in vivo
[2] = test system: CYP2C19, CYP2D6, CYP3A4, UGT2B4, and UGT2B7; experiment: Inhibition of CYP and UGT enzymes; format: in vitro ADME; conditions: at therapeutic concentration ranges; data on file

O[C@H]1CCCN[C@@H]1CCCn1cnc2c(Cl)c(Cl)ccc21 [Bersiporocin]
number of metabolites identified [1]: 21 | maximum recommended starting dose for a 60 kg adult (monkeys; calculated from NOAEL in monkeys, safety factor = 10): 154.8 mg | clinical observation in toxicity study (monkeys; monkeys, concluded not to be an adverse event, transient): vomiting was observed | inhibition of CYP and UGT enzymes [2]: did not inhibit
